Assay [1] has as its system CHO. Briefly: Selectivity for human cloned adrenergic beta-1 receptor over human cloned adrenergic beta3 receptor expressed in CHO cells. The class given is cell-based.
In assay [2] the target is Beta-1 adrenergic receptor (Homo sapiens, UniProt P08588).
Description: Agonist activity at human cloned adrenergic beta-1 receptor expressed in CHO cells assessed as cAMP accumulation
Assay [3] addresses Beta-3 adrenergic receptor (Canis lupus familiaris, UniProt O02662). Briefly: Agonist activity at dog cloned adrenergic beta3 receptor expressed in CHO cells assessed as cAMP accumulation. The class given is functional, cell-based. Background: Changes in cAMP serve as a functional read-out for many G protein-coupled receptors.
For assay [4], the target named is Beta-3 adrenergic receptor (Canis lupus familiaris) (UniProt O02662). Briefly: Agonist activity at dog cloned adrenergic beta3 receptor assessed as inhibition of carbachol-induced increase in intravesical pressure at 10 ug/kg, iv. The class given is functional.
In assay [5] the target is Beta-3 adrenergic receptor (Homo sapiens, UniProt P13945). Kind of assay: Agonist activity at human cloned adrenergic beta3 receptor expressed in CHO cells assessed as cAMP accumulation. The class given is functional, cell-based.
Assay [6] concerns the target Beta-3 adrenergic receptor (Canis lupus familiaris) (UniProt O02662). Briefly: Agonist activity at dog cloned adrenergic beta3 receptor assessed as inhibition of carbachol-induced increase in intravesical pressure at 32 ug/kg, iv. The class given is functional.

These results are taken from ChEMBL document CHEMBL1144172, “Discovery of novel series of benzoic acid derivatives containing biphenyl ether moiety as potent and selective human beta(3)-adrenergic receptor agonists: Part IV” (Bioorg Med Chem Lett, 2008).

Chain of Beta-3 adrenergic receptor (Canis lupus familiaris) (O02662 whole entry): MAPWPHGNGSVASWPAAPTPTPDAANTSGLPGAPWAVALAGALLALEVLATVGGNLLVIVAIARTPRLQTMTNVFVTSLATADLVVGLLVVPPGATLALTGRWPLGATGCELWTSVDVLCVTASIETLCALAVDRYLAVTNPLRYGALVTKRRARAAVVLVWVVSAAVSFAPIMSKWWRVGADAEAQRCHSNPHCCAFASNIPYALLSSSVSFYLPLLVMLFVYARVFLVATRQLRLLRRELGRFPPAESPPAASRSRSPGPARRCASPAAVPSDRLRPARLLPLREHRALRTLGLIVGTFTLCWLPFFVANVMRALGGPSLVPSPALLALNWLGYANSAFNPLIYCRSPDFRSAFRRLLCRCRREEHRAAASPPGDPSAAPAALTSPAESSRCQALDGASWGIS
Chain of Beta-3 adrenergic receptor (Canis lupus familiaris, UniProt O02662) (O02662 whole entry): as above
Chain of Beta-1 adrenergic receptor (P08588 whole entry): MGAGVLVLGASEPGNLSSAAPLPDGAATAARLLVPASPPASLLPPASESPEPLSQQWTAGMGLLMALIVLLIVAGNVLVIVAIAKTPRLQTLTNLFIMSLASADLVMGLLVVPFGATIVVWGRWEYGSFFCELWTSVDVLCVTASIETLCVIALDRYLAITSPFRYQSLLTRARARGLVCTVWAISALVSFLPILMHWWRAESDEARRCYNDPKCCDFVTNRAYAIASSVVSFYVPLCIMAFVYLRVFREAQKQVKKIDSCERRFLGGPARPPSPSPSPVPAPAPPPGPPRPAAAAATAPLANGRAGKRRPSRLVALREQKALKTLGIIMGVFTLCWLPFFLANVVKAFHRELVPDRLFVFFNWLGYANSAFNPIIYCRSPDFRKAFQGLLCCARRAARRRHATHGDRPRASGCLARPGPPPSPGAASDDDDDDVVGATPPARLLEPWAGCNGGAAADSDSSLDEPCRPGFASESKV
Chain of Beta-3 adrenergic receptor (Homo sapiens, UniProt P13945) (P13945 whole entry): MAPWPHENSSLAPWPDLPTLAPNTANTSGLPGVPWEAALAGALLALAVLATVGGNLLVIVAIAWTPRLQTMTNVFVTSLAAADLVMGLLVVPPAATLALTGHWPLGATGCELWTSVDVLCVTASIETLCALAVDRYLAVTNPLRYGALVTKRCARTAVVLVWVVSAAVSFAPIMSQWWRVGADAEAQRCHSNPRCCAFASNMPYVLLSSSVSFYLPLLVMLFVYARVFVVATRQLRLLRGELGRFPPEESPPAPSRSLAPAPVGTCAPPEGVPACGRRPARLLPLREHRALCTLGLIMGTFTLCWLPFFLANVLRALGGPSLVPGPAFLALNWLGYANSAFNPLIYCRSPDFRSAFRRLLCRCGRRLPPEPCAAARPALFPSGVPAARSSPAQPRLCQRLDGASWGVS

`CC(C)Oc1ccc(Oc2cccc(CCNC[C@H](O)c3cccc(Cl)c3)c2)cc1C(=O)O`: in assay [1], the Ratio EC50 worked out at 238. Further, the EC50 (in general, the concentration that produces a half-maximal response) in assay [2] was found to be 810 nM; in assay [3], 3.2 nM; in assay [5], 3.4 nM. Besides, the inhibition (commonly the percentage by which the read-out fell short of the control) in assay [4] was 43%.
Regarding `C[C@H](Cc1cccc(Oc2cccc(C(=O)O)c2)c1)NC[C@H](O)c1cccc(Cl)c1`, the Ratio EC50 in assay [1] worked out at 15. In addition, the EC50 came to 28 nM in assay [2] and 1.9 nM in assay [5].
In the same order, the values of `CC(=O)Nc1ccc(Oc2cccc(CCNC[C@H](O)c3cccc(Cl)c3)c2)cc1C(=O)O` are 53, 380 nM and 7.2 nM.
For the compound `O=C(O)c1ccc(Oc2cccc(CCNC[C@H](O)c3cccc(Cl)c3)c2)cc1`, the EC50 was > 100 nM in assay [2] and 60 nM in assay [5].
On to `O=C(O)c1cccc(Oc2cccc(CCNC[C@H](O)c3cccc(Cl)c3)c2)c1`, for which, in assay [1], the Ratio EC50 was > 7.1. Moreover, the EC50 in assay [2] is > 100 nM; in assay [5] it was 14 nM.
As for `Cc1ccc(Oc2cccc(CCNC[C@H](O)c3cccc(Cl)c3)c2)cc1C(=O)O`, the Ratio EC50 in assay [1] came out at 42. Besides, the values for the EC50 in assay [2] and in assay [5] were 550 nM and 13 nM, respectively.
The corresponding values for `O=C(O)c1cc(NC(=O)c2ccccc2)cc(Oc2cccc(CCNC[C@H](O)c3cccc(Cl)c3)c2)c1` are 9, 190 nM and 21 nM.
For `CC(=O)Nc1cc(Oc2cccc(CCNC[C@H](O)c3cccc(Cl)c3)c2)cc(C(=O)O)c1`, in assay [1], the Ratio EC50 came out at 37. The EC50 in assay [2] turned out to be 240 nM; in assay [5] it was 6.5 nM.
The corresponding values for `O=C(Nc1ccc(Oc2cccc(CCNC[C@H](O)c3cccc(Cl)c3)c2)cc1C(=O)O)c1ccccc1` are 15, 130 nM and 8.6 nM.
With `CC(C)(C)C(=O)Nc1ccc(Oc2cccc(CCNC[C@H](O)c3cccc(Cl)c3)c2)cc1C(=O)O`, in assay [1], the Ratio EC50 is 135. Further, the EC50 in assay [2] is 620 nM; in assay [3], 1.6 nM; in assay [5], 4.6 nM. In assay [6], the inhibition stood at 30%.
Regarding `O=C(O)c1cc(Oc2cccc(CCNC[C@H](O)c3cccc(Cl)c3)c2)ccc1Cl`, the Ratio EC50 in assay [1] was 6.7. Also, the results for the EC50 in assay [2] and in assay [5] were 64 nM and 9.5 nM, respectively.
In the same order, the values of `O=C(O)c1cc(Oc2cccc(CCNC[C@H](O)c3cccnc3)c2)ccc1F` are 27, 840 nM and 31 nM.
`O=C(O)c1cc(Oc2cccc(CCNC[C@H](O)c3cccc(Cl)c3)c2)ccc1F`: the Ratio EC50 in assay [1] worked out at 15. In addition, the EC50 in assay [2] was 140 nM; in assay [5] it was 9.4 nM.
For the compound `COc1ccc(Oc2cccc(CCNC[C@H](O)c3cccc(Cl)c3)c2)cc1C(=O)O`, the Ratio EC50 in assay [1] worked out at 46. In addition, the EC50 in assay [2] came out at 510 nM; in assay [5], 11 nM.
The corresponding values for `COc1ccc(Oc2cccc(CCNC[C@H](O)c3cccnc3)c2)cc1C(=O)O` are 12, 690 nM and 56 nM.
In the case of `CC(=O)Nc1ccc(Oc2cccc(CCNC[C@H](O)c3cccnc3)c2)cc1C(=O)O`, the Ratio EC50 in assay [1] was determined as 16. For the same compound, the EC50 is 190 nM in assay [2] and 12 nM in assay [5].
Regarding `O=C(O)c1cc(Oc2cccc(CCNC[C@H](O)c3cccc(Cl)c3)c2)ccc1N1CCCC1=O`, in assay [1], the Ratio EC50 was > 152. For the same compound, the EC50 was > 1000 nM in assay [2], 1.9 nM in assay [3] and 6.6 nM in assay [5]. In assay [6], the inhibition worked out at 84%.
